These results are taken from patent US20240158446A1, “CYCLIC COMPOUND HAVING SELECTIVE INHIBITORY ACTION ON KRAS OVER HRAS AND NRAS” (CHUGAI SEIYAKU KABUSHIKI KAISHA, priority 2021, published 2024).

Where two headings read alike, the source gives them in different places.

For experiment [1], the system named is human lung cancer strain NCI-H441.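 Further: cell proliferation inhibition after four days measured by CellTiter-Glo.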
In experiment [2] the target is GDP-bound KRAS wild-type protein (Homo sapiens, UniProt P01116). The experiment in a line: Binding to KRAS by surface plasmon resonance (SPR), Single Cycle Kinetics. As to conditions: GDP-bound KRAS wild-type protein, read-out: KRAS KD. A general note: In SPR one partner is held on a chip, and binding of the other changes the refractive index at the surface.
GDP-bound KRAS wild-type protein, sequence (P01116 whole entry): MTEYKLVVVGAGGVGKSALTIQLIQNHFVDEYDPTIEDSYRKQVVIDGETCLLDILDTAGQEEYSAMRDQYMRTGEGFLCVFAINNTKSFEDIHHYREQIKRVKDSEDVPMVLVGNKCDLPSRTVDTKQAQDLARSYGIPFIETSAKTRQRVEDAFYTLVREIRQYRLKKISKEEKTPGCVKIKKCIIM
For experiment [3], the target named is GDP-bound NRAS wild-type protein (Homo sapiens, UniProt P01111). The experiment in a line: Binding to NRAS by surface plasmon resonance (SPR), Single Cycle Kinetics. The following applies: for NRAS/KRAS (ratio of KD value for NRAS to KD value for KRAS): SPR, GDP-bound NRAS wild-type protein vs GDP-bound KRAS wild-type protein; for NRAS/KRAS (ratio of KD value with respect to GDP-bound NRAS wild-type protein to KD value with respect to KRAS): SPR KD ratio NRAS/KRAS, class symbols.
GDP-bound NRAS wild-type protein, sequence (P01111 whole entry): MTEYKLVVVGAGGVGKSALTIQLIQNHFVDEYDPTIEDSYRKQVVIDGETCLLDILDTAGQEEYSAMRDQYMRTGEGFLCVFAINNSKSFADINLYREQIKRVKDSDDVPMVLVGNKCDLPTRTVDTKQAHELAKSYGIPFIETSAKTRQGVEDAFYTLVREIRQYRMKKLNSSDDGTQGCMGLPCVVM

The target in experiment [4] is GDP-bound HRAS wild-type protein (Homo sapiens, UniProt P01112). The experiment in a line: Binding to HRAS by surface plasmon resonance (SPR), Single Cycle Kinetics. The following applies: for HRAS/KRAS (ratio of KD value for HRAS to KD value for KRAS): SPR, GDP-bound HRAS wild-type protein vs GDP-bound KRAS wild-type protein; for HRAS/KRAS (ratio of KD value with respect to GDP-bound HRAS wild-type protein to KD value with respect to KRAS): SPR KD ratio HRAS/KRAS, class symbols.
GDP-bound HRAS wild-type protein, sequence (P01112 whole entry): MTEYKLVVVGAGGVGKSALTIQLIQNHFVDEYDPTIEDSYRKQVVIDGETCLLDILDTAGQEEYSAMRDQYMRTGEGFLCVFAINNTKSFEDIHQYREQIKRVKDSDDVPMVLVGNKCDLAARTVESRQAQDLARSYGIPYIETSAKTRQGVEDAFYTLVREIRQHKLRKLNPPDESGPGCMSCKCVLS

The mark [5] stands for this setting: SPR Single Cycle Kinetics, 1:1 binding model.

For orientation: IC50 means the concentration that inhibits the measured activity by half. For orientation: Kd means the equilibrium constant for the complex coming apart.

`CCC[C@H]1C(=O)N[C@@H]([C@@H](C)CC)C(=O)N(C)CC(=O)N(C)[C@H]2C/C=C\CCN(C2=O)[C@@H](CC2CCC(F)(F)CC2)C(=O)N(C)CC(=O)N[C@@H](CCc2ccc(C(F)(F)F)c(OC)c2)C(=O)N2C[C@@H](C)C[C@H]2C(=O)N(C)C2(CCC2)C(=O)N(C)[C@@H](C2CCCC2)C(=O)N(C)[C@H](C(=O)N(C)C)CC(=O)N1C` [PP2376] gave a 50% inhibitory concentration (IC50) in experiment [1] of 4.8 nM. Besides, the Kd in experiment [2] (SPR, Single Cycle Kinetics) came to 0.28 nM. The “NRAS/KRAS (ratio of KD value for NRAS to KD value for KRAS)” value in experiment [3] was “A (a compound having 10 or more and less than 20 is denoted as A)”. Besides, the “HRAS/KRAS (ratio of KD value for HRAS to KD value for KRAS)” value in experiment [4] was “A (a compound having 10 or more and less than 20 is denoted as A)”.
`CCO[C@@H]1C[C@H]2C(=O)NC3(CC(C)(C)C3)C(=O)N(C)[C@@H](C3CCCCC3)C(=O)N(C)[C@H](C(=O)N(C)C)CC(=O)N(C)[C@@H](COC)C(=O)N[C@@H]([C@@H](C)CC)C(=O)N(C)CC(=O)N(C)[C@H]3C/C=C\CCN(C3=O)[C@@H](Cc3ccc(C(F)(F)F)cc3)C(=O)N(C)CC(=O)N[C@@H](CCc3ccc(Cl)c(Cl)c3)C(=O)N2C1` [PP2661] had an IC50 in experiment [1] of 13.4 nM. The Kd in experiment [2] (setting [5]) worked out at 0.27 nM. Moreover, in experiment [3], the “NRAS/KRAS (ratio of KD value with respect to GDP-bound NRAS wild-type protein to KD value with respect to KRAS)” value is reported as “AA (a compound having 20 or more is denoted as AA)”. The “HRAS/KRAS (ratio of KD value with respect to GDP-bound HRAS wild-type protein to KD value with respect to KRAS)” value in experiment [4] is “A (a compound having 10 or more and less than 20 is denoted as A)”.
As for `CC[C@H](C)[C@@H]1NC(=O)[C@H](CC)N(C)C(=O)C[C@@H](C(=O)N(C)C)N(C)C(=O)[C@H](C2CCCC2)N(C)C(=O)C2(CCC2)NC(=O)[C@H](CC2CCCCC2)N(C)C(=O)[C@H](CCc2cc(F)c(C(F)(F)F)c(F)c2)NC(=O)CN(C)C(=O)[C@H](Cc2ccc(C(F)(F)F)cc2)N2CC/C=C\C[C@@H](C2=O)N(C)C(=O)CN(C)C1=O` [PP1149], the 50% inhibitory concentration (IC50) in experiment [1] stood at 173 nM. For the same molecule, in experiment [2] (SPR, Single Cycle Kinetics), the Kd is 0.43 nM. For the same molecule, the “NRAS/KRAS (ratio of KD value for NRAS to KD value for KRAS)” value in experiment [3] is “A (a compound having 10 or more and less than 20 is denoted as A)”. In experiment [4], the “HRAS/KRAS (ratio of KD value for HRAS to KD value for KRAS)” value is “A (a compound having 10 or more and less than 20 is denoted as A)”.
With `CCO[C@@H]1C[C@H]2C(=O)NC3(CC(C)(C)C3)C(=O)N(C)[C@@H](C3CCCCC3)C(=O)N(C)[C@H](C(=O)N(C)C)CC(=O)N(C)[C@@H](COC)C(=O)N[C@@H]([C@@H](C)CC)C(=O)N(C3CC3)CC(=O)N(C)[C@H]3C/C=C\CCN(C3=O)[C@@H](Cc3ccc(C(F)(F)F)cc3)C(=O)N(C)CC(=O)N[C@@H](CCc3cc(F)c(C(F)(F)F)c(F)c3)C(=O)N2C1` [PP2657], inhibition in experiment [1] was half-maximal at 29.2 nM (IC50). For the same molecule, in experiment [2] (setting [5]), the Kd was 0.44 nM. The “NRAS/KRAS (ratio of KD value with respect to GDP-bound NRAS wild-type protein to KD value with respect to KRAS)” value in experiment [3] is “A (a compound having 10 or more and less than 20 is denoted as A)”. The “HRAS/KRAS (ratio of KD value with respect to GDP-bound HRAS wild-type protein to KD value with respect to KRAS)” value in experiment [4] was “A (a compound having 10 or more and less than 20 is denoted as A)”.
In experiment [1], `CCO[C@@H]1C[C@H]2C(=O)NC3(CCC3)C(=O)N(C)[C@@H](C(CC)CC)C(=O)N(C)[C@H](C(=O)N3CCOCC3)CC(=O)N(C)[C@@H](CC)C(=O)N[C@@H]([C@@H](C)CC)C(=O)N(C)CC(=O)N(C)[C@H]3C/C=C\CCN(C3=O)[C@@H](Cc3ccc(C(F)(F)F)cc3)C(=O)N(C)CC(=O)N[C@@H](CCc3cc(F)c(C(F)(F)F)c(F)c3)C(=O)N2C1` [PP1286] registered an IC50 of 58.8 nM. Besides, in experiment [2] (SPR, Single Cycle Kinetics, 1:1 binding model), the dissociation constant Kd came out at 0.65 nM. Moreover, in experiment [3] (KD ratio class), the “NRAS/KRAS (ratio of KD value for NRAS to KD value for KRAS)” value was “AA (a compound having 20 or more is denoted as AA)”. The “HRAS/KRAS (ratio of KD value for HRAS to KD value for KRAS)” value in experiment [4] (KD ratio class) was “A (a compound having 10 or more and less than 20 is denoted as A)”.
